54 molecules from patent US9365523B2, “Imidazolyl amide compounds and uses related thereto” (priority 2011, dated 2016) can be followed below.

Some results are limits rather than exact numbers.

In general, EC50 refers to the concentration needed to bring the measured effect to its halfway point.

The test system of one assay is MeV-Alaska. Kind of assay: Antiviral activity of compound analogs against MeV-Alaska (tables 1-5). Format: cell-based, measles virus. The conditions noted are these: Measles morbillivirus; Table 5.
Turning to `COc1ccc(-n2c(S(=O)(=O)C(C)C(=O)Nc3ccccc3)nc3ccccc32)cc1` (stereo not drawn) [Compound 139], the half-maximal effective concentration (EC50) is more than 75 µM. On the same count and under the same terms, for `O=C(CSc1nc2ccccc2n1-c1ccc(F)cc1)Nc1ncc(Cl)cc1Cl` [Compound 156] the value was 1.8 µM. The same measure, in the same setting: for `Cc1ccc(NC(=O)CSc2nc(-c3ccccc3)c(-c3ccccc3)[nH]2)c(Cl)c1` [Compound 142] the value was more than 75 µM. Take `Cc1ccc(NC(=O)C(C)Sc2nc3ccccc3n2Cc2ccccc2)c(Cl)c1` (stereo not drawn) [Compound 148]: the concentration giving a half-maximal response (EC50) was more than 75 µM.

With `Cc1ccc(NC(=O)c2ccccc2-c2nc3ccccc3n2-c2ccccc2)c(Cl)c1` [Compound 163], the EC50 was more than 50 µM. Still for that read-out and setting: for `Cc1ccc(NC(=O)C(C)Sc2nc(-c3ccccc3)c(-c3ccccc3)n2Cc2ccc(F)cc2)c(Cl)c1` (stereo not drawn) [Compound 128] the value was more than 75 µM; for `Cc1ccc(N(Cc2ccc(F)cc2)C(=O)CSc2nc(-c3ccccc3)c(-c3ccccc3)n2Cc2ccc(F)cc2)c(Cl)c1` [Compound 143], more than 75 µM; for `Cc1ccc(NC(=O)CSc2nc3cccnc3n2-c2ccccc2)c(Cl)c1` [Compound 147], 16 µM. `Cc1ccc(NC(=O)/C=C\c2nc3ccccc3n2-c2ccccc2)c(Cl)c1` [Compound 138] came in with an EC50 of more than 50 µM.

For `Cc1ccc(NC(=O)C(C)Sc2nc(-c3ccccc3)c(-c3ccccc3)[nH]2)c(Cl)c1` (stereo not drawn) [Compound 152], the EC50 was more than 75 µM.

The same assay, now with this note: Table 1.
On to `COc1ccc(-n2c(SC(C)C(=O)Nc3nc(Cl)cc(Cl)n3)nc3ccccc32)cc1` (stereo not drawn) [Compound 44], for which the concentration giving a half-maximal response (EC50) is more than 75 µM. Molecule `COc1ccc(-n2c(SC(C)C(=O)Nc3ccc([N+](=O)[O-])cc3C)nc3ccccc32)cc1` (stereo not drawn) [Compound 32] returned an EC50 of more than 9.3 µM. Still for that read-out and setting: the result for `COc1ccc(-n2c(SC(C)C(=O)Nc3ccc(C#N)cn3)nc3ccccc32)cc1` (stereo not drawn) [Compound 26] reads more than 75 µM; that for `COc1ccc(-n2c(SC(C)C(=O)Nc3nc(C)cs3)nc3ccccc32)cc1` (stereo not drawn) [Compound 35], 3.6 µM. On the same count and under the same terms, for `COc1ccc(-n2c(SC(C)C(=O)Nc3ncc(Br)cn3)nc3ccccc32)cc1` (stereo not drawn) [Compound 8] the value was 4.1 µM; for `COc1ccc(-n2c(SC(C)C(=O)Nc3cc(Br)ccc3Br)nc3ccccc32)cc1` (stereo not drawn) [Compound 2], 1.7 µM; for `COc1ccc(-n2c(SC(C)C(=O)Nc3ccc(Cl)c(Cl)c3)nc3ccccc32)cc1` (stereo not drawn) [Compound 48], 7.3 µM. As for `COc1ccc(-n2c(SC(C)C(=O)Nc3cc(C)nn3C)nc3ccccc32)cc1` (stereo not drawn) [Compound 18], the EC50 was 0.9 µM. Same read-out and setting: the result for `COc1ccc(-n2c(SC(C)C(=O)Nc3cccc([N+](=O)[O-])c3)nc3ccccc32)cc1` (stereo not drawn) [Compound 33] reads 4.6 µM. Still for that read-out and setting: the result for `COc1ccc(-n2c(SC(C)C(=O)Nc3ccc(F)cc3)nc3ccccc32)cc1` (stereo not drawn) [Compound 47] reads more than 10 µM; that for `COc1ccc(-n2c(SC(C)C(=O)Nc3nccs3)nc3ccccc32)cc1` (stereo not drawn) [Compound 36], 4 µM. On the same count and under the same terms, for `COc1ccc(-n2c(SC(C)C(=O)Nc3ccccc3Cl)nc3ccccc32)cc1` (stereo not drawn) [Compound 50] the value was 0.14 µM; for `COc1ccc(-n2c(SC(C)C(=O)Nc3ccc(C)c(Cl)c3)nc3ccccc32)cc1` (stereo not drawn) [Compound 21], 0.4 µM.

Staying with this assay, now noted: Table 2.
`CC(=O)NCCOc1ccc(-n2c(SC(C)C(=O)Nc3ccc(C)cc3Cl)nc3ccccc32)cc1` (stereo not drawn) [Compound 61] displayed an EC50 of more than 10 µM. On to `Cc1ccc(NC(=O)C(C)Sc2nc3ccccc3n2-c2ccc(OCCO)cc2)c(Cl)c1` (stereo not drawn) [Compound 58], for which the 50% effective concentration (EC50) came out at 4.6 µM.

On to `Cc1cccc(-n2c(SC(C)C(=O)Nc3ccc(C)cc3Cl)nc3ccccc32)c1` (stereo not drawn) [Compound 75], for which a half-maximal response (EC50) required 0.1 µM.

Consider `COC(=O)COc1ccc(-n2c(SC(C)C(=O)Nc3ccc(C)cc3Cl)nc3ccccc32)cc1` (stereo not drawn) [Compound 69], for which the 50% effective concentration (EC50) was more than 9.3 µM. Still for that read-out and setting: for `Cc1ccc(NC(=O)C(C)Sc2nc3ccccc3n2-c2ccc(CN(C)C)cc2)c(Cl)c1` (stereo not drawn) [Compound 98] the value was 1.4 µM.

`Cc1ccc(NC(=O)C(C)Sc2nc3ccccc3n2-c2ccccc2)c(Cl)c1` (stereo not drawn) [Compound 72] had an EC50 of 0.09 µM.

Turning to `Cc1ccc(NC(=O)C(C)Sc2nc3ccccc3n2-c2ccc(CCO)cc2)c(Cl)c1` (stereo not drawn) [Compound 64], the EC50 came out at 2.5 µM. Same read-out and setting: the result for `Cc1ccc(NC(=O)C(C)Sc2nc3ccccc3n2-c2ccc(O)cc2)c(Cl)c1` (stereo not drawn) [Compound 76] reads 3.8 µM; that for `Cc1ccc(NC(=O)C(C)Sc2nc3ccccc3n2-c2ccc(N(C)C)cc2)c(Cl)c1` (stereo not drawn) [Compound 77], 0.29 µM; that for `Cc1ccc(NC(=O)C(C)Sc2nc3ccccc3n2S(=O)(=O)C2CCCCC2)c(Cl)c1` (stereo not drawn) [Compound 89], 0.61 µM.

The same assay, now with this note: Table 3.
With `CCOc1ccc(-n2c(SC(C)C(=O)Nc3ncc(Cl)cc3Cl)nc3ccccc32)cc1` (stereo not drawn) [Compound 102], the midpoint of the response, the EC50, lay at 0.2 µM.

Regarding `Cc1cnc(NC(=O)C(C)Sc2nc3ccccc3n2-c2ccc(F)cc2)c(Cl)c1` (stereo not drawn) [Compound 116], the response was half-maximal at 0.8 µM (EC50).

The molecule `Cc1cccc(-n2c(SC(C)C(=O)Nc3ncc(C)cc3Cl)nc3ccccc32)c1` (stereo not drawn) [Compound 119] registered an EC50 of 0.09 µM.

For a further assay, the system named is MeV-Alaska. Kind of assay: Viral CPE-reduction assay. The conditions noted are these: Measles morbillivirus, read-out: EC50, suppression of viral cytopathic effect (CPE), CPE.
Procedure: To rapidly pre-screen small libraries of compound analogs for antiviral activity, Vero-SLAM cells were infected with MeV-Alaska in four replicates per compound concentration in a 96-well plate format at an MOI of 0.4 pfu/cell in the presence of the inhibitor analyzed ranging from 75 μM to 293 nM in two-fold dilutions. At 96 hours post-infection, cell monolayers were subjected to crystal violet staining (0.1% crystal violet in 20% ethanol), and the absorbance of dried plates at 560 nm determined. Virus-induced cytopathicity was then calculated according to the formula [% rel. CPE=100-(experimental-minimum)/(maximum-minimum)*100], with minimum referring to infected, vehicle-treated wells and maximum to mock-infected wells.
`Cc1ccc(NC(=O)C(C)Sc2nc3ccccc3n2-c2ccc(CC=O)cc2)c(Cl)c1` (stereo not drawn) [drawing 225]: the concentration giving a half-maximal response (EC50) worked out at 8.5 µM. `Cc1ccc(NC(=O)C(C)Sc2nc3ccccc3n2-c2cccc(CCN(C)C)c2)c(Cl)c1` (stereo not drawn): the 50% effective concentration (EC50) came out at 1.22 µM. Same read-out and setting: the result for `Cc1ccc(NC(=O)C(C)Sc2nc3ccccc3n2C2CCN(C(=O)OC(C)(C)C)CC2)c(Cl)c1` (stereo not drawn) [drawing 220] reads 0.6 µM; that for `CC(Sc1nc2ccccc2n1-c1ccc(CC=O)cc1)C(=O)Nc1ccccc1Cl` (stereo not drawn), 18.8 µM.

As to `CCN1CCC(Cn2c(SC(C)C(=O)Nc3ccc(C)cc3Cl)nc3ccccc32)CC1` (stereo not drawn), the EC50 is more than 75 µM. The same measure, in the same setting: the result for `Cc1ccc(NC(=O)C(C)Sc2nc3ccccc3n2C2CC[N+](C)(C)CC2)c(Cl)c1` (stereo not drawn) reads more than 75 µM; that for `Cc1ccc(NC(=O)C(C)Sc2nc3ccccc3n2-c2cccc(CCN3CCCCC3)c2)c(Cl)c1` (stereo not drawn), 1.52 µM; that for `Cc1ccc(NC(=O)C(C)Sc2nc3ccccc3n2[C@H]2CCCC[C@@H]2O)c(Cl)c1` (stereo partly drawn), 0.872 µM. With `Cc1ccc(NC(=O)C(C)Sc2nc3ccccc3n2-c2cccc(CO)c2)c(Cl)c1` (stereo not drawn) [drawing 230], the EC50 is 0.7 µM. Still for that read-out and setting: the result for `Cc1ccc(NC(=O)C(C)Sc2nc3ccccc3n2CCN2CCN(C(=O)OC(C)(C)C)CC2)c(Cl)c1` (stereo not drawn) reads 1.32 µM. For `Cc1ccc(NC(=O)C(C)Sc2nc3ccccc3n2-c2ccc(CO)cc2)c(Cl)c1` (stereo not drawn) [drawing 229], the concentration for a half-maximal effect (EC50) was found to be 3.91 µM. The same measure, in the same setting: the result for `CNCCc1ccc(-n2c(SC(C)C(=O)Nc3ccc(C)cc3Cl)nc3ccccc32)cc1` (stereo not drawn) [drawing 226] reads 8.72 µM; that for `Cc1ccc(NC(=O)C(C)Sc2nc3ccccc3n2CCN2CCNCC2)c(Cl)c1` (stereo not drawn), more than 75 µM; that for `Cc1ccc(NC(=O)C(C)Sc2nc3ccccc3n2-c2ccccc2CO)c(Cl)c1` (stereo not drawn), 0.8 µM. Same read-out and setting: for `COc1ccc(-n2c(SC(CCO)C(=O)Nc3ccccc3)nc3ccccc32)cc1` (stereo not drawn) the value was 27.8 µM. Still for that read-out and setting: for `Cc1ccc(NC(=O)C(C)Sc2nc3ccccc3n2-c2cccc(CN3CCN(C)CC3)c2)c(Cl)c1` (stereo not drawn) [drawing 252] the value was 1.28 µM.

For the molecule `CCN1CCN(CCn2c(SC(C)C(=O)Nc3ccc(C)cc3Cl)nc3ccccc32)CC1` (stereo not drawn), the EC50 amounted to 18.8 µM.

The same assay, now with this note: read-out: EC50, suppression of viral cytopathic effect (CPE); CPE.
As for `CCN1CCCC1Cn1c(SC(C)C(=O)Nc2ccc(C)cc2Cl)nc2ccccc21` (stereo not drawn) [drawing 215], the concentration for a half-maximal effect (EC50) stood at 5.52 µM.
